{
  "source": "patent US20030124655A1",
  "about": "“Receptor protein specifically recognizing bacterial dna” (priority 2000, published 2003)",
  "key": {"[1]": {"system": "JNK", "assay": "JNK activity in macrophages, in vitro kinase assay", "type": "cell-based, mouse", "method": "(§1) As described in a reference (Immunity 11, 115-122, 1999), the JNK activity and IRAK activity were measured by in vitro kinase assay using GST-c-Jun fusion protein (GST-c-Jun) as a substrate (top figures of FIG. 10 and FIG. 11; GST-c-Jun, Auto).\n(§2) The cell lysates were separated by SDS-polyacrylamide gel electrophoresis to transfer them onto a nitrocellulose membrane and blotted the membrane with anti-JNK antibody (Santa Cruz) or anti-IRAK antibody (Transduction Laboratories) to visualize using an enhanced chemiluminescent system (Dupont) (bottom figures of FIG. 10 and FIG. 11; WB)."}, "[2]": {"system": "spleen cells", "assay": "Spleen cell proliferation, [3H]-timidine uptake", "type": "cell-based, mouse"}, "[3]": {"conditions": "cited from earlier work"}, "[4]": {"system": "NF-κB", "assay": "NF-κB DNA-binding activity in peritoneal macrophages (gel shift)", "conditions": "1.0 μM", "protocol": "2 ml of 4% thioglycolic acid medium (DIFCO) was injected to each peritoneum of wild-type mice and TLR9 knockout mice (TLR9^−/−), peritoneal exudation cells were isolated from peritonea from each mouse after 3 days, the cells were cultured in RPMI1640 medium to which 10% of fetal bovine serum (GIBCO) was added at 37° C. for 2 hours, and remove the unattached cells by washing with ice-chilled Hank's buffered salt solution (HBSS; GIBCO), and the attached cells were used as peritoneal macrophages in the following experiments."}, "[5]": {"system": "dendritic cells derived from bone marrow", "assay": "IL-12 p40 production in bone marrow-derived dendritic cells (ELISA)", "type": "cell-based, mouse", "conditions": "dendritic cells from wild-type mice; 0.1 μM, 2 days"}, "[6]": {"system": "B cells", "assay": "MHC class II expression on the surface of B cells", "type": "cell-based, mouse", "conditions": "B cells from wild-type mice"}, "[7]": {"system": "IRAK", "assay": "IRAK activity in macrophages, in vitro kinase assay", "type": "cell-based, mouse", "method": "as §1, §2"}, "[8]": {"conditions": "macrophages from TLR9 knockout mice"}, "[9]": {"conditions": "macrophages from wild-type mice"}},
  "note": "Where two headings read alike, the source gives them in different places.",
  "data": [
    {"substance": "TCC-ATG-ACG-TTC-CTG-ATG-CT (DNA TCCATGACGTTCCTGATGCT; listed as DNA, chemistry not given here) [CpG ODN, ID No: 5; from TIB MOLBIOL]", "values": [
      {"measurement": "JNK activation", "setting": "[1]; [8]", "result": "does not activate"},
      {"measurement": "JNK activation", "setting": "[1]; [9]", "result": "activates"},
      {"measurement": "cell proliferating reaction ([3H]-timidine uptake)", "setting": "[2]; spleen cells from TLR9 knockout mice, any concentration", "result": "did not show any cell proliferating reaction"},
      {"measurement": "cell proliferating reaction ([3H]-timidine uptake)", "setting": "[2]; spleen cells from wild-type mice", "result": "promote cell proliferating reactions depending on the amount"},
      {"measurement": "response to CpG ODN", "setting": "[3]; MyD88 knockout mice", "result": "do not show response"},
      {"measurement": "response to CpG ODN", "setting": "[3]; TLR2 knockout mice", "result": "show normal response"},
      {"measurement": "response to CpG ODN", "setting": "[3]; TLR4 knockout mice", "result": "show normal response"},
      {"measurement": "NF-κB DNA-binding activity", "setting": "[4]; [8]", "result": "did not increase NF-κB DNA-binding activity"},
      {"measurement": "NF-κB DNA-binding activity", "setting": "[4]; [9]", "result": "increased NF-κB DNA-binding activity"},
      {"measurement": "IL-12 p40 production", "setting": "[5]", "result": "produced IL-12"},
      {"measurement": "amount of expressing MHC class II on the surface of B cells", "setting": "[6]", "result": "increased"},
      {"measurement": "IRAK activation", "setting": "[7]; [8]", "result": "does not activate"},
      {"measurement": "IRAK activation", "setting": "[7]; [9]", "result": "activates"}
    ]}
  ]
}
